One may read the IC50 as the concentration needed to halve the response being measured.

Molecules are shown by their SMILES. Activity calls are given as the source filed them.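 The calls were made as follows: active = IC50 against T. cruzi CYP51 below a set limit; inactive = the rest.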

The target of this experiment is Sterol 14-alpha demethylase (Trypanosoma cruzi (strain CL Brener)) (UniProt Q7Z1V1). Kind of experiment: T. cruzi sterol 14-alpha demethylase inhibition – biochemical, recombinant enzyme, mechanism study for T. cruzi antiparasitic project, dose response (AID 1159558).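 Also: enzyme in bacterial membranes with Anopheles gambiae CYP reductase and cytochrome b5 partners.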 Conditions: recombinant T. cruzi CYP51, BOMCC fluorescence.
Sequence of Sterol 14-alpha demethylase (Trypanosoma cruzi (strain CL Brener)) (Q7Z1V1 whole entry, looked up): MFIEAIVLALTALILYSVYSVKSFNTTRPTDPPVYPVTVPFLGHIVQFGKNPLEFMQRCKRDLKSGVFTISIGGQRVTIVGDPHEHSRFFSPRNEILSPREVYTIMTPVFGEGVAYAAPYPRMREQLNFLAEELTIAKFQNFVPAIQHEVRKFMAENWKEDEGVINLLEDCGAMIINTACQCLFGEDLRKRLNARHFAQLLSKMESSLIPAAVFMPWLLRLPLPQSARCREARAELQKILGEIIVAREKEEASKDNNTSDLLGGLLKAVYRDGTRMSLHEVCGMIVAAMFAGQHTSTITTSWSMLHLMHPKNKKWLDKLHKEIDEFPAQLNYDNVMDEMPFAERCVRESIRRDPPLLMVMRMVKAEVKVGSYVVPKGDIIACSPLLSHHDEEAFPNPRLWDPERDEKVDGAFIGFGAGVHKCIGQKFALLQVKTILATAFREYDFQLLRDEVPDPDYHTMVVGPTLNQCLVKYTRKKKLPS
As for `CC(C)c1sc(Cl)nc1C(=O)NCCc1nc(C(=O)Nc2ccc3c(c2)OCO3)cs1`, the IC50 was 7.9 µM.
As for `Cc1ccc2onc(Nc3ccnc(Nc4cccc(S(C)(=O)=O)c4)n3)c2c1`, the figure is 40 µM.
As for `Cn1ccnc1-c1nc(NCc2ccccc2Cl)cc(C2CC2)n1`, the figure is 40 µM; as for `N#Cc1ccc(Br)cc1[N+](=O)[O-]`, 50 µM.
The value for `COc1ccc(S(=O)(=O)Nc2ccccc2OC)cc1NC(=O)CCCc1c[nH]c2ccccc12` was > 100 µM (inactive); that for `CCCN1CCN(Cc2ccc(S(=O)(=O)Nc3cccc(C)c3)cc2)CC1` was > 100 µM (inactive); that for `Cc1nc(-c2nc(NCc3ccc(Cl)cc3)c3cccnc3c2O)n[nH]1` was 16 µM.
On to `CNS(=O)(=O)c1ccccc1Nc1nc(Nc2cc(C)nn2C)ncc1Cl`, for which the half-inhibitory concentration (IC50) is 25 µM.
As for `CC(=O)Nc1nc(-c2cc(C)ccc2C)c(C)s1`, the figure is > 100 µM (inactive); as for `Cn1cc(CN2CCN(c3ccc4c(c3)CCN(C(=O)[C@H]3C[C@@H]3c3ccccc3)CC4)CC2)cn1`, 16 µM; as for `Cc1cc(C)n(-c2nc(NC(C)(C)C)nc(N3CCOCC3)n2)n1`, > 100 µM (inactive).
As for `Cc1cc(Br)sc1CNCCCNc1cc(=O)c2ccccc2[nH]1`, the figure is 63 µM; as for `CN(CCOc1ccc(Cl)cc1)Cc1nc(N)nc(N(C)C)n1`, 32 µM.
As for `C=CCOCC1Cn2nc([N+](=O)[O-])nc2O1` (stereo not given), the figure is > 100 µM (inactive).
For the compound `COc1ccc(C(C)N(C)c2ncc3c(N)nc(N)nc3n2)cc1F` (stereo not given), the IC50 is > 100 µM (inactive).
The value for `Nc1nccc(-c2csc(Nc3ccc(Cl)cc3)n2)n1` was 1.3 µM.
On to `C[C@@H](Oc1cc(-n2cnc3ccc(C(O)CO)cc32)sc1C(N)=O)c1ccccc1C(F)(F)F` (stereo not given in full), for which the IC50 was 25 µM.
As for `O=C(COc1ccccc1)Nc1ccccc1C(=O)Nc1nccs1`, the figure is > 100 µM (inactive); as for `COc1ccccc1C(=O)Nc1nnc(-c2ccc3c(c2)OCO3)s1`, > 100 µM (inactive); as for `Cn1c(CC(=O)NNC(=O)c2ccc3ccccc3n2)nc2ccccc21`, 32 µM.
As for `COc1cc2c(cc1OC)[C@H]1[C@@H](C)c3ccc(OC)c(OC)c3CN1CC2`, the figure is 79 µM; as for `Nc1ncnc2c1ncn2[C@@H]1O[C@H](CO)C[C@H]1O`, > 100 µM (inactive).
As for `CCN(CC)S(=O)(=O)c1ccc(C(=O)Nc2cc(C)nn2-c2nc(C)c(C)c(=O)[nH]2)cc1`, the IC50 is > 100 µM (inactive).
The value for `O=c1ccc2ccc(F)c3c2n1C[C@H]3CN1CCC(NCc2cc3ccccc3o2)CC1` was 32 µM; that for `CCOc1ccc2nc(NC(=O)c3ccc([N+](=O)[O-])s3)sc2c1` was > 100 µM (inactive); that for `COc1ccc2ncc(=O)n(CCN3CC[C@H](NCc4ncc(Cl)c5[nH]ncc45)[C@H](O)C3)c2n1` was > 100 µM (inactive).
Take `N#Cc1cccc(Cc2cc(Nc3cc(C4CC4)[nH]n3)nc(N3CC[C@H]3C(N)=O)n2)c1`: the half-inhibitory concentration (IC50) was 50 µM.
As for `O=C(CSc1nnc2ccc(-c3ccc(F)cc3)nn12)N1CCCCC1`, the figure is > 100 µM (inactive); as for `COc1ccc(-c2cc(C)no2)cc1S(=O)(=O)Nc1ccc(C)c(C)c1`, 16 µM.
The value for `CN(C)c1ncc(-c2cncn2CCOc2ccc(Cl)cc2)cn1` was 0.05 µM.
Turning to `COc1cccc(S(=O)(=O)Nc2ccc3c(c2)CC(N2CCC(NC(=O)C4CC4)CC2)C3)c1` (stereo not given), the IC50 was 63 µM.
As to `N#Cc1cc([N+](=O)[O-])ccc1NC1CCCCCC1`, the IC50 is > 100 µM (inactive).
As for `Cc1[nH]nc(C(F)(F)F)c1NC(=O)CCn1cc(Cl)c([N+](=O)[O-])n1`, the figure is > 100 µM (inactive); as for `CC(CNS(=O)(=O)c1ccc(OC(F)F)cc1)c1ccc(NC(=O)c2ccncc2)cc1` (stereo not given), 0.05 µM; as for `COc1ccc(Nc2nc(NC3CCC(O)CC3)ncc2Br)c(C(N)=O)c1` (stereo not given), 13 µM.
As for `NC(=O)c1cc(F)ccc1Nc1nc(NC2CCC(O)CC2)ncc1Cl` (stereo not given), the figure is 32 µM.
As for `COc1ccc(-c2nc3ccncc3c(=O)n2CCOc2ccccc2)cc1`, the figure is 0.04 µM.
For `O=C(NCc1nnc2n1CCCCC2)c1csc(-c2ccccc2)n1`, the IC50 is > 100 µM (inactive).
Regarding `Cc1cccnc1NC(=O)c1cccc(OCc2c(C)noc2C)c1`, the IC50 is 50 µM.
Consider `O=C(NCc1ccc(Cl)cc1)C1CN(C(=O)c2ccc(F)cc2)CCS1` (stereo not given), for which the IC50 was 13 µM.
The value for `Cc1ccc(Nc2nc(N)nc(CNC(c3nc4ccccc4[nH]3)C(C)C)n2)cc1` (stereo not given) was 50 µM.
In the case of `O=c1[nH]c(NCCCNCc2cc(Br)cc(Br)c2)nc2ccsc12`, the IC50 was 32 µM.
The value for `CCn1c(NC(=O)Cc2ccc(F)cc2)nc2ccccc21` was 25 µM; that for `Clc1ccc(OCCN2CCCCC2c2cccnc2)c(Cl)c1` (stereo not given) was 0.063 µM.
The value for `c1ccc(-c2nc(NCc3ccco3)c3ccccc3n2)nc1` was > 100 µM (inactive).
As for `COc1ccc(-c2cc(C)no2)cc1S(=O)(=O)Nc1ccc(F)c(Cl)c1`, the figure is > 100 µM (inactive); as for `O=C(NC1C(=O)N(c2ccccc2)C1c1cccnc1)c1ccc(Cl)s1` (stereo not given), 0.2 µM.
Regarding `Cc1cc(=O)n2nc(Oc3ccc(C#N)cc3Cl)sc2n1`, the IC50 is > 100 µM (inactive).
Regarding `O=C(NC(c1ccc(Cl)cc1)c1cnccn1)C1CCN(C(=O)Nc2cccc(C(F)(F)F)c2)CC1` (stereo not given), the IC50 was 0.13 µM.
The value for `Cn1nccc1-c1cc(OC(CN)c2ccccc2)cnc1-c1ccco1` (stereo not given) was 0.063 µM; that for `Clc1ccc(C(CC2CCCCO2)Cn2cncn2)c(Cl)c1` (stereo not given) was 0.25 µM.
As for `O=C(NCCCn1cnc2ccccc21)c1ccc(NC(=O)c2ccco2)cc1`, the figure is 16 µM.
The value for `O=C(NC1CCN(C2Cc3ccc(NS(=O)(=O)c4cc(F)cc(F)c4)cc3C2)CC1)C1CC1` (stereo not given) was 50 µM; that for `O=C(NCC1CCCCN1C(=O)c1cccc2ccccc12)c1ccccc1` (stereo not given) was > 100 µM (inactive); that for `COc1cccc(C(=O)[C@H]2C[C@@H]2CN(Cc2ccccn2)Cc2ccccn2)c1` was 32 µM.
For the compound `CN(Cc1ccc(F)cc1)c1ccc(OCC(=O)N2CCCCC2c2cccnc2)nn1` (stereo not given), the IC50 was 0.05 µM.
The value for `O=C1NCc2cccc(Nc3nc(NC4CCC(O)CC4)ncc3Br)c21` (stereo not given) was > 100 µM (inactive).
In the case of `Cn1nc([N+](=O)[O-])nc1Oc1ccc(C(=O)c2ccccc2)cc1`, the IC50 is > 100 µM (inactive).
Regarding `CC(C)C[C@H](NC(=O)c1ccc(-c2ccccc2)o1)C(=O)NC1(C#N)CC1`, the IC50 is > 100 µM (inactive).
The value for `N#Cc1ccc(C(=O)Nc2cccc(-c3cccc(CN4CCC(O)CC4)c3)c2)cc1` was 25 µM; that for `O=C(CSc1nnc(-c2ccc3c(c2)OCO3)o1)N(Cc1ccco1)CC(F)(F)F` was 25 µM.
In the case of `CC1=NN(C(=O)CCn2cnc([N+](=O)[O-])n2)C(O)(C(F)(F)F)C1` (stereo not given), the IC50 is > 100 µM (inactive).
The value for `Cc1cc2ncn(-c3ccc([N+](=O)[O-])cc3C#N)c2cc1C` was > 100 µM (inactive); that for `O=C(c1cnn(-c2ccccc2)n1)N1CCCC(n2ccnc2)C1` (stereo not given) was 0.079 µM; that for `CC(C)CC(=O)Nc1cc(C2CC2)nn1-c1nc2c(c(=O)[nH]1)CCCC2` was > 100 µM (inactive).

These data come from PubChem BioAssay AID1159558 (GlaxoSmithKline (GSK), 2015).
